Data on six compounds can be found in patent US12723063B2, “GIPR-agonist compounds” (Eli Lilly and Company, priority 2019, dated 2026).

Assay in all cases: cAMP functional assay (HTRF) in HEK293 cells in presence of 0.1% casein
Holding throughout (format): cell-based
For orientation: Time-resolved FRET reads energy transfer from a long-lived donor to a nearby acceptor.

Experiment [1] has as its target T1, human GLP-1 receptor (GLP-1R) (Homo sapiens, UniProt P43220).
T1 construct: expressed in transfected cells; host or cells: HEK293
As to conditions: HEK293 cells expressing human GLP-1R, geometric mean, read-out: hGLP1R cAMP Rel EC50 nM (SEM, n).

Experiment [2] has as its target T2, human glucagon receptor (GcgR) (Homo sapiens, UniProt P47871).
T2 construct: expressed in transfected cells; host or cells: HEK293
Particulars: HEK293 cells expressing human GcgR, geometric mean, read-out: hGcgR cAMP Rel EC50 nM (SEM, n).

The target in experiment [3] is T3, human glucose-dependent insulinotropic peptide receptor (GIPR) (Homo sapiens, UniProt P48546).
T3 construct: expressed in transfected cells; host or cells: HEK293
T3 sequence (P48546 22-466): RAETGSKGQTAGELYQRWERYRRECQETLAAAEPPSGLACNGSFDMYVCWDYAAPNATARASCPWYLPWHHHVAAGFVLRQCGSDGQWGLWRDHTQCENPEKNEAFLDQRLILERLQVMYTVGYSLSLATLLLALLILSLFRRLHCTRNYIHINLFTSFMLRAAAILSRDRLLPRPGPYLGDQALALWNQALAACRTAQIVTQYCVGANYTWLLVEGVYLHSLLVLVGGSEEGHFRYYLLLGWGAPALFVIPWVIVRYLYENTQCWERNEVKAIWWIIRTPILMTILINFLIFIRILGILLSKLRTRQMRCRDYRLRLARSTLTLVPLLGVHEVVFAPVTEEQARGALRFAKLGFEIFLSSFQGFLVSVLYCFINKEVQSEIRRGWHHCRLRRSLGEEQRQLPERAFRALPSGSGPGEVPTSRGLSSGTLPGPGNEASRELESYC
Particulars: HEK293 cells expressing human GIPR, geometric mean, read-out: hGIPR cAMP Rel EC50 nM (SEM, n).

*1 amine or outer side, *2 acyl side, *3 side chain or, on linkers, in order; H or OH if unused. Where a SMILES comes first, the peptide text is derived from it. Side-chain parts run from the residue outwards. [ ]: non-standard residue; d: D form. The star is where a group is joined. C20 diacid = O=C(O)CCCCCCCCCCCCCCCCCCC(=O)*; C18 diacid = O=C(O)CCCCCCCCCCCCCCCCC(=O)*; γGlu = O=C(O)[C@H](CCC(=O)[*:2])N[*:1]; 4Pal = N[C@@H](Cc1ccncc1)C(=O)O; AEEA = NCCOCCOCC(=O)O; Aib = CC(C)(N)C(=O)O

T2 sequence (P47871 26-477): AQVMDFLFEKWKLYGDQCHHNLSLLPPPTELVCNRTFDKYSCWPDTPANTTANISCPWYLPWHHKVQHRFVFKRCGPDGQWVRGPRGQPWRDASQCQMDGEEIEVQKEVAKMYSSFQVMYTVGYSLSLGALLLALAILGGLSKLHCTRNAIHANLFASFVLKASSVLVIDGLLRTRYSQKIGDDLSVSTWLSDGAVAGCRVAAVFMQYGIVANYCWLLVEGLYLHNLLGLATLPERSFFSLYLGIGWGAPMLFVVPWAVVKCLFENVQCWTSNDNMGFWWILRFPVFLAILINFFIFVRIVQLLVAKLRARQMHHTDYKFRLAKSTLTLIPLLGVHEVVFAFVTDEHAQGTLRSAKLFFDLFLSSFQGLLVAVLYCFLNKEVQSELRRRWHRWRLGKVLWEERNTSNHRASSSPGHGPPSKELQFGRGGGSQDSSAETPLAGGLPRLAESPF
T1 sequence (P43220 24-463): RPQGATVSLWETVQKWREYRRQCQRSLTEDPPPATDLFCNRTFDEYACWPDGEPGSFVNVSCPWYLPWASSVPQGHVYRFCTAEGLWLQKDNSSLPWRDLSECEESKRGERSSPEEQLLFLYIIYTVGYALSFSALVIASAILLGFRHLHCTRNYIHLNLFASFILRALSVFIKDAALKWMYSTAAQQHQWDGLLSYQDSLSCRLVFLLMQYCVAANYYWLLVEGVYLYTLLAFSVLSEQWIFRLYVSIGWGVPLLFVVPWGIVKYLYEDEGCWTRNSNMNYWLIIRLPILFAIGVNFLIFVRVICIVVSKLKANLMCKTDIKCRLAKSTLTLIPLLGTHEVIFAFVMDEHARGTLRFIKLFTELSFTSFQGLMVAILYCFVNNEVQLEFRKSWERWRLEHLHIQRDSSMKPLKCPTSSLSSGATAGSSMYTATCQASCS

With `CC[C@H](C)[C@H](NC(=O)[C@H](CO)NC(=O)[C@H](Cc1ccc(O)cc1)NC(=O)[C@H](CC(=O)O)NC(=O)[C@H](CO)NC(=O)[C@@H](NC(=O)[C@H](Cc1ccccc1)NC(=O)[C@@H](NC(=O)CNC(=O)[C@H](CCC(=O)O)NC(=O)[C@@H](C)NC(=O)[C@@H](N)Cc1ccc(O)cc1)[C@@H](C)O)[C@@H](C)CC)C(=O)N[C@@H](CC(C)C)C(=O)N[C@@H](CC(C)C)C(=O)N[C@@H](CC(=O)O)C(=O)N[C@@H](CCCCN)C(=O)N[C@@H](CCCCNC(=O)COCCOCCNC(=O)COCCOCCNC(=O)CC[C@H](NC(=O)CCCCCCCCCCCCCCCCCCC(=O)O)C(=O)O)C(=O)N[C@@H](Cc1c[nH]cn1)C(=O)N[C@@H](CCC(N)=O)C(=O)N[C@@H](CCC(N)=O)C(=O)N[C@@H](CC(=O)O)C(=O)N[C@@H](Cc1ccccc1)C(=O)N[C@H](C(=O)N[C@@H](CC(N)=O)C(=O)N[C@@H](Cc1ccc(O)cc1)C(=O)N[C@@H](CC(C)C)C(=O)N[C@@H](CC(C)C)C(=O)N[C@@H](C)C(=O)N[C@@H](CCC(N)=O)C(=O)NCC(=O)N1CCC[C@H]1C(=O)N[C@@H](CO)C(=O)N[C@@H](CO)C(=O)NCC(=O)N[C@@H](C)C(=O)N1CCC[C@H]1C(=O)N1CCC[C@H]1C(=O)N1CCC[C@H]1C(=O)N[C@@H](CO)C(N)=O)C(C)C` [Example 15] (H-Y[dA]EGTFISDYSILLDKK([AEEA-AEEA-γGlu-C20 diacid])HQQDFVNYLLAQGPSSGAPPPS-NH2), the EC50 in experiment [1] is above 100 nM; in experiment [2], above 5000 nM; in experiment [3], 0.282 nM.
As to `CC[C@H](C)[C@H](NC(=O)[C@H](CO)NC(=O)[C@H](Cc1ccc(O)cc1)NC(=O)[C@H](CC(=O)O)NC(=O)[C@H](CO)NC(=O)[C@@H](NC(=O)[C@H](Cc1ccccc1)NC(=O)[C@@H](NC(=O)CNC(=O)[C@H](CCC(=O)O)NC(=O)[C@@H](C)NC(=O)[C@@H](N)Cc1ccc(O)cc1)[C@@H](C)O)[C@@H](C)CC)C(=O)N[C@@H](CC(C)C)C(=O)N[C@@H](CC(C)C)C(=O)N[C@@H](CC(=O)O)C(=O)N[C@@H](CCCCN)C(=O)N[C@@H](CCCCNC(=O)COCCOCCNC(=O)COCCOCCNC(=O)CC[C@H](NC(=O)CCCCCCCCCCCCCCCCC(=O)O)C(=O)O)C(=O)N[C@@H](C)C(=O)N[C@@H](CCC(N)=O)C(=O)NC(C)(C)C(=O)N[C@@H](CC(=O)O)C(=O)N[C@@H](Cc1ccccc1)C(=O)N[C@H](C(=O)N[C@@H](CCC(=O)O)C(=O)N[C@@H](Cc1c[nH]c2ccccc12)C(=O)N[C@@H](CC(C)C)C(=O)N[C@@H](CC(C)C)C(=O)N[C@@H](C)C(=O)N[C@@H](CCC(N)=O)C(=O)NCC(=O)N1CCC[C@H]1C(=O)N[C@@H](CO)C(=O)N[C@@H](CO)C(=O)NCC(=O)N[C@@H](C)C(=O)N1CCC[C@H]1C(=O)N1CCC[C@H]1C(=O)N1CCC[C@H]1C(=O)N[C@@H](CO)C(N)=O)C(C)C` [Example 16] (H-Y[dA]EGTFISDYSILLDKK([AEEA-AEEA-γGlu-C18 diacid])AQ[Aib]DFVEWLLAQGPSSGAPPPS-NH2), the EC50 in experiment [1] was above 5000 nM; in experiment [2], above 5000 nM; in experiment [3], 0.00937 nM.
For `CC[C@H](C)[C@H](NC(=O)[C@H](CO)NC(=O)[C@H](Cc1ccc(O)cc1)NC(=O)[C@H](CC(=O)O)NC(=O)[C@H](CO)NC(=O)[C@@H](NC(=O)[C@H](Cc1ccccc1)NC(=O)[C@@H](NC(=O)CNC(=O)[C@H](CCC(=O)O)NC(=O)[C@@H](C)NC(=O)[C@@H](N)Cc1ccc(O)cc1)[C@@H](C)O)[C@@H](C)CC)C(=O)N[C@@H](CC(C)C)C(=O)N[C@@H](CC(C)C)C(=O)N[C@@H](CC(=O)O)C(=O)N[C@@H](CCCCN)C(=O)N[C@@H](CCCCNC(=O)COCCOCCNC(=O)COCCOCCNC(=O)CC[C@H](NC(=O)CCCCCCCCCCCCCCCCC(=O)O)C(=O)O)C(=O)N[C@@H](C)C(=O)N[C@@H](CCC(N)=O)C(=O)NC(C)(C)C(=O)N[C@@H](CC(=O)O)C(=O)N[C@@H](Cc1ccccc1)C(=O)N[C@H](C(=O)N[C@@H](CC(N)=O)C(=O)N[C@@H](Cc1c[nH]c2ccccc12)C(=O)N[C@@H](CC(C)C)C(=O)N[C@@H](CC(C)C)C(=O)N[C@@H](CCC(=O)O)C(=O)N[C@@H](CCC(N)=O)C(=O)NCC(=O)N1CCC[C@H]1C(=O)N[C@@H](CO)C(=O)N[C@@H](CO)C(=O)NCC(=O)N[C@@H](C)C(=O)N1CCC[C@H]1C(=O)N1CCC[C@H]1C(=O)N1CCC[C@H]1C(=O)N[C@@H](CO)C(N)=O)C(C)C` [Example 17] (H-Y[dA]EGTFISDYSILLDKK([AEEA-AEEA-γGlu-C18 diacid])AQ[Aib]DFVNWLLEQGPSSGAPPPS-NH2), the figures for the EC50 in experiment [1], in experiment [2] and in experiment [3] were above 5000 nM, above 5000 nM and 0.0135 nM, respectively.
As to `CC[C@H](C)[C@H](NC(=O)[C@H](CO)NC(=O)[C@H](Cc1ccc(O)cc1)NC(=O)[C@H](CC(=O)O)NC(=O)[C@H](CO)NC(=O)[C@@H](NC(=O)[C@H](Cc1ccccc1)NC(=O)[C@@H](NC(=O)CNC(=O)[C@H](CCC(=O)O)NC(=O)[C@@H](C)NC(=O)[C@@H](N)Cc1ccc(O)cc1)[C@@H](C)O)[C@@H](C)CC)C(=O)N[C@@H](CC(C)C)C(=O)N[C@@H](CC(C)C)C(=O)N[C@@H](CC(=O)O)C(=O)N[C@@H](CCCCN)C(=O)N[C@@H](CCCCNC(=O)COCCOCCNC(=O)COCCOCCNC(=O)CC[C@H](NC(=O)CCCCCCCCCCCCCCCCC(=O)O)C(=O)O)C(=O)N[C@@H](C)C(=O)N[C@@H](CCC(N)=O)C(=O)NC(C)(C)C(=O)N[C@@H](CC(=O)O)C(=O)N[C@@H](Cc1ccccc1)C(=O)N[C@H](C(=O)N[C@@H](CC(N)=O)C(=O)N[C@@H](Cc1ccncc1)C(=O)N[C@@H](CC(C)C)C(=O)N[C@@H](CC(C)C)C(=O)N[C@@H](C)C(=O)N[C@@H](CCC(N)=O)C(=O)NCC(=O)N1CCC[C@H]1C(=O)N[C@@H](CO)C(=O)N[C@@H](CO)C(=O)NCC(=O)N[C@@H](C)C(=O)N1CCC[C@H]1C(=O)N1CCC[C@H]1C(=O)N1CCC[C@H]1C(=O)N[C@@H](CO)C(N)=O)C(C)C` [Example 18] (H-Y[dA]EGTFISDYSILLDKK([AEEA-AEEA-γGlu-C18 diacid])AQ[Aib]DFVN[4Pal]LLAQGPSSGAPPPS-NH2), the EC50 in experiment [1] is above 5000 nM; in experiment [2], above 5000 nM; in experiment [3] it was 0.00656 nM.
Regarding `CC[C@H](C)[C@H](NC(=O)[C@H](CO)NC(=O)[C@H](Cc1ccc(O)cc1)NC(=O)[C@H](CC(=O)O)NC(=O)[C@H](CO)NC(=O)[C@@H](NC(=O)[C@H](Cc1ccccc1)NC(=O)[C@@H](NC(=O)CNC(=O)[C@H](CCC(=O)O)NC(=O)[C@@H](C)NC(=O)[C@@H](N)Cc1ccc(O)cc1)[C@@H](C)O)[C@@H](C)CC)C(=O)N[C@@H](CC(C)C)C(=O)N[C@@H](CC(C)C)C(=O)N[C@@H](CC(=O)O)C(=O)N[C@@H](CCCCN)C(=O)N[C@@H](CCCCNC(=O)COCCOCCNC(=O)COCCOCCNC(=O)CC[C@H](NC(=O)CCCCCCCCCCCCCCCCC(=O)O)C(=O)O)C(=O)N[C@@H](C)C(=O)N[C@@H](CCC(N)=O)C(=O)NC(C)(C)C(=O)N[C@@H](CC(=O)O)C(=O)N[C@@H](Cc1ccccc1)C(=O)N[C@H](C(=O)N[C@@H](CC(N)=O)C(=O)N[C@@H](Cc1c[nH]c2ccccc12)C(=O)N[C@@H](CC(C)C)C(=O)N[C@@H](CC(C)C)C(=O)N[C@@H](C)C(=O)NCC(=O)NCC(=O)N1CCC[C@H]1C(=O)N[C@@H](CO)C(=O)N[C@@H](CO)C(=O)NCC(=O)N[C@@H](C)C(=O)N1CCC[C@H]1C(=O)N1CCC[C@H]1C(=O)N1CCC[C@H]1C(=O)N[C@@H](CO)C(N)=O)C(C)C` [Example 19] (H-Y[dA]EGTFISDYSILLDKK([AEEA-AEEA-γGlu-C18 diacid])AQ[Aib]DFVNWLLAGGPSSGAPPPS-NH2), the EC50 in experiment [1] was above 5000 nM; in experiment [2], above 5000 nM; in experiment [3], 0.00992 nM.
On to `CC[C@H](C)[C@H](NC(=O)[C@H](CO)NC(=O)[C@H](Cc1ccc(O)cc1)NC(=O)[C@H](CC(=O)O)NC(=O)[C@H](CO)NC(=O)[C@@H](NC(=O)[C@H](Cc1ccccc1)NC(=O)[C@@H](NC(=O)CNC(=O)[C@H](CCC(=O)O)NC(=O)[C@@H](C)NC(=O)[C@@H](N)Cc1ccc(O)cc1)[C@@H](C)O)[C@@H](C)CC)C(=O)N[C@@H](CC(C)C)C(=O)N[C@@H](CC(C)C)C(=O)N[C@@H](CC(=O)O)C(=O)N[C@@H](CCCCN)C(=O)N[C@@H](CCCCNC(=O)COCCOCCNC(=O)COCCOCCNC(=O)CC[C@H](NC(=O)CCCCCCCCCCCCCCCCC(=O)O)C(=O)O)C(=O)N[C@@H](C)C(=O)N[C@@H](CCC(N)=O)C(=O)NC(C)(C)C(=O)N[C@@H](CCC(=O)O)C(=O)N[C@@H](Cc1ccccc1)C(=O)N[C@H](C(=O)N[C@@H](CC(N)=O)C(=O)N[C@@H](Cc1c[nH]c2ccccc12)C(=O)N[C@@H](CC(C)C)C(=O)N[C@@H](CC(C)C)C(=O)N[C@@H](C)C(=O)N[C@@H](CCC(N)=O)C(=O)NCC(=O)N1CCC[C@H]1C(=O)N[C@@H](CO)C(=O)N[C@@H](CO)C(=O)NCC(=O)N[C@@H](C)C(=O)N1CCC[C@H]1C(=O)N1CCC[C@H]1C(=O)N1CCC[C@H]1C(=O)N[C@@H](CO)C(N)=O)C(C)C` [Example 20] (H-Y[dA]EGTFISDYSILLDKK([AEEA-AEEA-γGlu-C18 diacid])AQ[Aib]EFVNWLLAQGPSSGAPPPS-NH2), for which the figures for the EC50 in experiment [1], in experiment [2] and in experiment [3] were above 5000 nM, above 5000 nM and 0.00933 nM, respectively.

By EC50 is commonly meant the concentration needed to bring the measured effect to its halfway point.
